Results: patent US9403944B2, “Antipathogenic guanidinium copolymer” (priority 2012, dated 2016)

Experiments:
[1] = tested on: Klebsiella pneumoniae ATCC 4352; experiment: Coated coupon surface antimicrobial test, Klebsiella pneumoniae; assay type: cell-based; details: Stainless Steel 2″ × 2″ coupons, tested by Applicant, challenged with 3.8 × 10^7 bacteria; copolymer 0.0299 g/m2, Aegis 2.36 g/m2
Procedure: (§1) The silylated copolymer of Example II hereinabove was dissolved in isopropanol (IPA) to give a 30% w/v (IPA) solution. This IPA solution was then diluted to a 0.1% w/v concentration with additional IPA solvent.
(§2) 2″×2″ test coupons of Formica and 316 Stainless Steel were first washed with soap and water then wiped with a 70 wt. % aqueous ethanol solution and dried. The copolymer 2600 solution was applied via misting onto the coupon surfaces using a Preval sprayer. The surfaces of the coupons were sprayed until completely covered by the copolymer solution and then dried horizontally for >3 hr. at room temperature. Control coupons were sprayed with 30 wt. % aqueous IPA solution followed by drying under identical conditions. The final areal concentration of the dried copolymer on the test coupon surface was 0.0299 g/m2. All coupons were then irradiated with a C wavelength germicidal Ultraviolet Lamp (UVC) situated within a biosafety cabinet. […]
Antimicrobial; testing was performed by Applicant and independently by Professor. Charles Gerba, Ph.D. As a control, Applicant also determined the antimicrobial properties of a material sold in commerce by Aegis under the tradename AEM 5772-5. […]

[2] = tested on: Staphylococcus aureus ATCC 6538; experiment: Coated coupon surface antimicrobial test, Staphylococcus aureus; assay type: cell-based; details: Stainless Steel 2″ × 2″ coupons, tested by Applicant, challenged with 1.1 × 10^7 bacteria; copolymer 0.0299 g/m2, Aegis 2.36 g/m2
Procedure: as §1, §2
Antimicrobial; testing was performed by Applicant and independently by Professor. Charles Gerba, Ph.D. As a control, Applicant also determined the antimicrobial properties of a material sold in commerce by Aegis under the tradename AEM 5772-5.

## CCCCCCCCCCCCCCCCCC[N+](C)(C)CCC[Si](O)(O)O.[Cl-] [Aegis Quaternary Ammonium Silane, 3-(trihydroxysilyl) propyldimethyloctadecyl ammonium chloride]
[1]
  Ave. Log10 Reduction ± SD v. control 12 min exposure: 1.15 ± 0.26 log10
[2]
  Ave. Log10 Reduction ± SD v. control 10 min exposure: 0.00 log10
